The source of these data is patent publication US6570010B2, “Inclusion compounds of vanillyl alcohol derivative in cyclodextrin and compositions containing the same” (Takasago International Corporation, priority 2000, dated 2003).

This data set in a line: Solubility in water of 20° C. The data set is classed as physicochemical. The note with it: wt. %. An excerpt: In this table, vanillyl-n-butyl ether will be abbreviated as VBE.

Molecules are shown by their SMILES.

As for `CCCCOCc1ccc(O)c(OC)c1` [VBE, vanillyl-n-butyl ether], the “Solubility of VBE in terms of concentration” value is given as under 0.002%.
